# Measurements published in US7507716B2, “Method for treating pain with prolactin antagonists” (Board of Regents, The University of Texas System, priority 2005, dated 2009).
# Columns and labels:
# PRL-R = assay: Western blot of PRL-R isoforms in TG of OVX rats; type: in vivo, rat; conditions: TG of OVX rats, 2, 20 or 80 μg/kg s.c. daily for 10 days
# Description: There are two isoforms of the rat PRL receptor (PRL-R) that differ in the length of their cytoplasmic tail and are therefore termed the long and short isoforms. […] Moreover, the differential expression of these receptors is regulated by estrogen in certain tissues (Sakaguchi et al., 1994; Pi et al., 2003). To determine whether estrogen regulates the expression of the PRL-R in the female TG, protein extracts prepared from TG of OVX rats and subjected to Western blot analysis using an anti-PRL-R antibody that recognizes both the long and the short PRL-R isoforms. FIG. 3A depicts a representative immunoblot of this experiment. The antibody recognized two bands migrating at approximately 100 KDa and 40 KDa corresponding to the long and short PRL-R isoforms respectively. Blots were stripped and probed with an antibody against beta-actin to normalize for loading differences. […] The data are presented as mean±SEM (n=4/group, *=p<0.05 and **=p<0.01; one-way ANOVA with Bonferroni's post hoc test).
# At the end of the 10th day, animals were used for behavioral experiments or sacrificed by decapitation and the TG of each individual animal were harvested. Harvested tissue was used for RNA isolation, total protein isolation, or for preparing primary cultures of TG neurons. […]
# TRPV1 = TRPV1 phosphorylation (32P incorporation, immunoprecipitation); type: cell-based, rat; conditions: PRL 40 nM 10 min
# Protocol: The activity of TRPV1 is dependent upon its phosphorylation status. Hyperphosphorylation of TRPV1 is associated with increased responsiveness to capsaicin (Bhave et al., 2003; Mohapatra and Nau, 2005; Zhang et al., 2005; Mandadi et al., 2006). Since PRL-signaling through PRL-R is known to activate various intracellular kinases pathways, the effect of PRL on TRPV1 phosphorylation status in cultured TG neurons was assessed. Cultured TG neurons were incubated with PRL (40 nM) or vehicle for 10 min in the presence of radioactive phosphate (P^32-orthophosphate). Extracts of the radiolabelled TG cultures were prepared and subjected to immunoprecipated using an antibody that specifically recognizes TRPV1, and the resulting immune complexes were resolved by SDS-PAGE and prepared for immunoblot analysis. The blots were subjected to autoradiography to visualize radiolabelled P^32-TRPV1 and to determine its relative abundance in the presence of PRL. The resolved protein was then immunoblotted using an antibody raised against TRPV1 to ensure that the observed differences in radiolabelled TRPV1 abundance are not due to technical errors (e.g., unequal gel loading). […]
# Autoradiography and Western blot results were scanned and quantified using NIH Image 1.62. […]
Molecule,expression of the long form of PRL-R (PRL-R),expression of the short form of the PRL-R (PRL-R),TRPV1 phosphorylation status (TRPV1; TG neurons from OVX rats),phosphorylation state of TRPV1 (TRPV1; neurons from intact female rats) [%]
"C[C@]12CC[C@@H]3c4ccc(O)cc4CC[C@H]3[C@@H]1CC[C@@H]2O [estradiol, 17-β-estradiol]",increases expression of the long form of PRL-R in the TG of OVX rats in a dose-dependent manner,does not appear to significantly affect expression of the short form of the PRL-R,,
"PRL: Ovine PRL [oPRL-21, BIO] provided by NHPP; prolactin polypeptide hormone (protein, UniProt P01240 31-229, looked up) Prolactin: TPVCPNGPGNCQVSLRDLFDRAVMVSHYIHNLSSEMFNEFDKRYAQGKGFITMALNSCHTSSLPTPEDKEQAQQTHHEVLMSLILGLLRSWNDPLYHLVTEVRGMKGVPDAILSRAIEIEEENKRLLEGMEMIFGQVIPGAKETEPYPVWSGLPSLQTKDEDARHSAFYNLLHCLRRDSSKIDTYLKLLNCRIIYNNNC",,,no observable effect,150±13
